In US11261186B2, “Biaryl derivative as GPR120 agonist” (LG CHEM, LTD., priority 2014, dated 2022):

Target: T1, hGPR120 (Homo sapiens, UniProt Q5NUL3)
T1 construct: expressed in transfected cells; host or cells: CHO-K1
T1 sequence (Q5NUL3 1-361): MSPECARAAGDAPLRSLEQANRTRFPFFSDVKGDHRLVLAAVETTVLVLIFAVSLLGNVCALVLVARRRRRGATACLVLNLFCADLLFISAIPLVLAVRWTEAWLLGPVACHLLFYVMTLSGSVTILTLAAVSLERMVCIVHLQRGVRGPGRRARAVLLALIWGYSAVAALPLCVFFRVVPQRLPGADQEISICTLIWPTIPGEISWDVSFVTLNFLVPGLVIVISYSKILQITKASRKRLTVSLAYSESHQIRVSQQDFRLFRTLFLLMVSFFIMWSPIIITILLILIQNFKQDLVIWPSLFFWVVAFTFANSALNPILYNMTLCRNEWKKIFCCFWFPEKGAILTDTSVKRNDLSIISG
Assay: Measurement of Activity of GPR120 Agonist (Cell-Based Assay), Calcium 5 dye fluorescence
Settings: CHO-K1 cells expressing Ga16 and hGPR120
Procedure, shortened: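 CHO-K1 cells co-expressing Gα16 and hGPR120 were seeded, cultured 18 h at 37 °C, then loaded 1 h with Calcium 5 dye. Serially diluted agonists (final 0.5% DMSO) were added and fluorescence read at Ex 485/Em 525 nm, expressed as percent relative to 1% DMSO-only wells.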

Row | SMILES | EC50
1 | CN(CCCC(=O)O)c1c(F)cc(-c2cc(Cl)cc3c2OC(C)(C)C3)cc1F [Example 255, 4-{[4-(5-chloro-2,2-dimethyl-2,3-dihydro-benzofuran-7-yl)-2,6-difluoro-phenyl]-methyl-amino}-butyric acid] | < 200 nM
2 | CC(CCCC(=O)O)c1c(F)cc(-c2cc(Cl)cc3c2OC(C)(C)C3)cc1F (stereo not drawn) [Example 256, 5-[4-(5-chloro-2,2-dimethyl-2,3-dihydro-benzofuran-7-yl)-2,6-difluoro-phenyl]-hexanoic acid] | 200 to 2000 nM
3 | COc1ccc(-c2cc(F)c(OCCCC(=O)O)c(F)c2)c2c1OC(C)(C)C2 [Example 257, 4-[2,6-difluoro-4-(7-methoxy-2,2-dimethyl-2,3-dihydro-benzofuran-4-yl)-phenoxy]-butyric acid] | < 200 nM
4 | COc1ccc(-c2cc(F)c(SCCCC(=O)O)c(F)c2)c2c1OC(C)(C)C2 [Example 258, 4-[2,6-difluoro-4-(7-methoxy-2,2-dimethyl-2,3-dihydro-benzofuran-4-yl)-phenylsulfanyl]-butyric acid] | < 200 nM
5 | COc1ccc(-c2cc(F)c(N(C)CCCC(=O)O)c(F)c2)c2c1OC(C)(C)C2 [Example 259, 4-{[2,6-difluoro-4-(7-methoxy-2,2-dimethyl-2,3-dihydro-benzofuran-4-yl)-phenyl]-methyl-amino}-butyric acid] | < 200 nM
6 | COc1ccc(-c2cc(F)c(C(C)CCCC(=O)O)c(F)c2)c2c1OC(C)(C)C2 (stereo not drawn) [Example 260] | < 200 nM
7 | O=C(O)CCCOc1c(F)cc(-c2cccc3c2OC2(CCCC2)C3)cc1F [Example 261, 4-(2,6-difluoro-4-spiro[3H-benzofuran-2,1′-cyclopentan]-7-yl-phenoxy)-butyric acid] | < 200 nM
8 | O=C(O)CCCSc1c(F)cc(-c2cccc3c2OC2(CCCC2)C3)cc1F [Example 262, 4-(2,6-difluoro-4-spiro[3H-benzofuran-2,1′-cyclopentan]-7-yl-phenylsulfanyl)-butyric acid] | < 200 nM
9 | CN(CCCC(=O)O)c1c(F)cc(-c2cccc3c2OC2(CCCC2)C3)cc1F [Example 263, 4-(2,6-difluoro-N-methyl-4-spiro[3H-benzofuran-2,1′-cyclopentan]-7-yl-anilino)-butyric acid] | < 200 nM
10 | CC(CCCC(=O)O)c1c(F)cc(-c2cccc3c2OC2(CCCC2)C3)cc1F (stereo not drawn) [Example 264, 5-(2,6-difluoro-4-spiro[3H-benzofuran-2,1′-cyclopentan]-7-yl-phenyl)-hexanoic acid] | 200 to 2000 nM
11 | COC(=O)N1c2c(cc(F)cc2-c2cc(F)c(OCCCC(=O)O)c(F)c2)CC1(C)C [Example 265, 7-[4-(3-carboxy-propoxy)-3,5-difluoro-phenyl]-5-fluoro-2,2-dimethyl-2,3-dihydro-indol-1-carboxylic acid methyl ester] | 200 to 2000 nM
12 | CC1(C)Cc2cc(F)cc(-c3cc(F)c(OCCCC(=O)O)c(F)c3)c2N1 [Example 266, 4-[2,6-difluoro-4-(5-fluoro-2,2-dimethyl-2,3-dihydro-1H-indol-7-yl)-phenoxy]-butyric acid] | 200 to 2000 nM
13 | CC1(C)Cc2c(ccc(F)c2-c2cc(F)c(OCCCC(=O)O)c(F)c2)N1 [Example 268, 4-[2,6-difluoro-4-(5-fluoro-2,2-dimethyl-2,3-dihydro-1H-indol-4-yl)-phenoxy]-butyric acid] | 200 to 2000 nM
14 | CC(C)Sc1ncccc1-c1ccc2c(c1)CCC(CCC(=O)O)S2 (stereo not drawn) [Example 270, 3-[6-(2-isopropylsulfanyl-pyridin-3-yl)-thiochroman-2-yl]-propionic acid] | < 200 nM
15 | O=C(O)CCC1CCc2cc(-c3cccnc3OC3CCCC3)ccc2S1 (stereo not drawn) [Example 271, 3-[6-(2-cyclopentoxy-pyridin-3-yl)-thiochroman-2-yl]-propionic acid] | < 200 nM
16 | O=C(O)CCC1CCc2cc(-c3cccnc3SC3CCC3)ccc2O1 (stereo not drawn) [Example 272, 3-[6-(2-cyclobutylsulfanyl-pyridin-3-yl)-chroman-2-yl]-propionic acid] | < 200 nM
17 | COc1ccc(-c2ccc3c(c2)CCC(CCC(=O)O)O3)c2c1OC(C)(C)C2 (stereo not drawn) [Example 273, 3-[6-(7-methoxy-2,2-dimethyl-2,3-dihydro-benzofuran-4-yl)-chroman-2-yl]-propionic acid] | 2000 to 20000 nM
18 | COc1ccc(-c2ccc3c(c2)CCC(CCC(=O)O)S3)c2c1OC(C)(C)C2 (stereo not drawn) [Example 274, 3-[6-(7-methoxy-2,2-dimethyl-2,3-dihydro-benzofuran-4-yl)-thiochroman-2-yl]-propionic acid] | 200 to 2000 nM
19 | O=C(O)CCC1CCc2cc(-c3cccnc3SC3CCC3)ccc2S1 (stereo not drawn) [Example 275, 3-[6-(2-cyclobutylsulfanyl-pyridin-3-yl)-thiochroman-2-yl]-propionic acid] | < 200 nM
20 | O=C(O)CCC1CCc2cc(-c3cccnc3OCC3CC3)ccc2O1 (stereo not drawn) [Example 276, 3-[6-(2-cyclopropylmethoxy-pyridin-3-yl)-chroman-2-yl]-propionic acid] | 200 to 2000 nM
21 | O=C(O)CCC1CCc2cc(-c3cccnc3OC3CCC3)ccc2O1 (stereo not drawn) [Example 277, 3-[6-(2-cyclobutoxy-pyridin-3-yl)-chroman-2-yl]-propionic acid] | 200 to 2000 nM
22 | O=C(O)CCC1CCc2cc(-c3cccnc3OC3CCC3)ccc2S1 (stereo not drawn) [Example 278, 3-[6-(2-cyclobutoxy-pyridin-3-yl)-thiochroman-2-yl]-propionic acid] | < 200 nM
23 | O=C(O)CCC1CCc2cc(-c3cccnc3OCC3CC3)ccc2S1 (stereo not drawn) [Example 279, 3-[6-(2-cyclopropylmethoxy-pyridin-3-yl)-thiochroman-2-yl]-propionic acid] | < 200 nM
24 | O=C(O)CCC1CCc2cc(-c3cccnc3SC3CCCC3)ccc2O1 (stereo not drawn) [Example 280, 3-[6-(2-cyclopentylsulfanyl-pyridin-3-yl)-chroman-2-yl]-propionic acid] | < 200 nM
25 | O=C(O)CCC1CCc2cc(-c3cccnc3SC3CCCC3)ccc2S1 (stereo not drawn) [Example 281, 3-[6-(2-cyclopentylsulfanyl-pyridin-3-yl)-thiochroman-2-yl]-propionic acid] | < 200 nM
26 | CC1(C)Cc2cc(Cl)cc(-c3ccc4c(c3)CCC(CCC(=O)O)S4)c2O1 (stereo not drawn) [Example 282, 3-[6-(5-chloro-2,2-dimethyl-2,3-dihydro-benzofuran-7-yl)-thiochroman-2-yl]-propionic acid] | 200 to 2000 nM
27 | O=C(O)CCC1CCc2cc(-c3cccc4c3OC3(CCCC3)C4)ccc2S1 (stereo not drawn) [Example 283, 3-(6-spiro[3H-benzofuran-2,1′-cyclopentan]-7-yl-thiochroman-2-yl)-propionic acid] | 200 to 2000 nM
28 | O=C(O)CCC1CCc2cc(-c3cccnc3OC3CCOCC3)ccc2S1 (stereo not drawn) [Example 284, 3-{6-[2-(tetrahydro-pyran-4-yloxy)-pyridin-3-yl]-thiochroman-2-yl}-propionic acid] | 200 to 2000 nM
29 | COc1ccc(-c2cc(F)c(N3CC(CC(=O)O)C3)c(F)c2)c2c1OC(C)(C)C2 [Example 285, {1-[2,6-difluoro-4-(7-methoxy-2,2-dimethyl-2,3-dihydro-benzofuran-4-yl)-phenyl]-azetidin-3-yl}-acetic acid] | 2000 to 20000 nM
30 | CC(C)Sc1cccc(-c2ccc3c(c2)CCC(CCC(=O)O)S3)n1 (stereo not drawn) [Example 286, 3-[6-(6-isopropylsulfanyl-pyridin-2-yl)-thiochroman-2-yl]-propionic acid] | < 200 nM
